Patent US20090305954A1, “HISTIDINE-CONTAINING DIASTEREOMERIC PEPTIDES AND USES THEREOF” (Yeda Research and Development Co. Ltd., priority 2005, published 2009)
Values after ≈ are worked out from the molar mass of the structure shown. Where two headings read alike, the source gives them in different places. Square brackets hold non-standard residues; d marks the D form. Peptide text beside a SMILES is read from it.

Legend:
[1] = test system: DU145 human prostate cancer cell line; assay: XTT proliferation (cytotoxicity) assay, DU145; type: cell-based
Protocol: (§1) The CL1 human prostate carcinoma (PC) cell line is an androgen-independent (AI) subclone of LNCaP cell line, which was generated by culturing androgen-dependent (AD) LNCaP cells in charcoal-stripped, […], as described (Patel et al. 2000). 22RV1 human PC cells are AI sub-clones of the AD prostatic adenocarcinoma CWR22 xenograft (Sramkoski et al. 1999). CL1 and 22RV1 (ATCC, USA) were grown in RPMI-1640 supplemented with 10% FCS (Biological Industries, Beit Haemek, Israel). PC3 and DU145 are androgen-insensitive (AI) (non-responsive), invasive human prostate cancer cell lines. NIH-3T3 mouse fibroblast cell lines (ATCC, USA) were grown in DMEM supplemented with 10% BS. Murine Lewis lung carcinoma (LLC) cell lines were also grown in DMEM medium supplemented with 10% fetal calf serum and antibiotics under the same conditions as above.
(§2) The anticancer activity of the diastereomers 1, 5 and 11-16, 36-39, 42 and 44 was examined against human CL1 prostate cancer, murine LLC (Lewis lung carcinoma), DU 145 and PC3 cell lines. The cell selectivity of the diastereomeric peptides was also studied by examining their effect on NIH-3T3 normal mouse fibroblasts cell line.
(§3) A 96-well plate (Falcon) was used for the XTT proliferation assay. Cancer cells were grown for 24 hours (day 1) in RPMI-1640 medium ([…] cells/100 μl for LLC, CL1, 22RVI, DU 145 and PC3, respectively) supplemented with 10% fetal calf serum and antibiotics, at 37° C., in humidified atmosphere at 5% CO2 and 95% air, resulting in growth medium pH of 7.4. NIH-3T3 fibroblast cells (1×10^4 cells/100 μl) were grown in DMEM medium supplemented with 10% bovine calf serum and antibiotics under the same conditions as described above for the cancerous cells. Wells in the last two rows served as blanks (medium only, for measuring the background color of the medium) and 100% survival controls (cells and medium only without treatment), respectively.
(§4) In day 2, the peptides were dissolved in sterile PBS to a concentration of 200 μM (or 500 μM). The medium in the assay wells was replaced with 100 μl serum free medium. For the assays at pH 6, the medium was initially concentrated (×5 or ×10) and then diluted with double distilled water and addition of sodium carbonate. Before reaching the correct dilution, the medium was adjusted to pH 6 and then more water was added to reach the final dilution. The cells were grown in physiological pH, and the acidic pH was used only during the 24 hours incubation with the peptides. A sign for the correct acidity was a light yellow color of the medium. In line A of the plate, 160 μl of serum free medium was added, if the initial peptide concentration was 500 μM.
(§5) Peptide solutions, 100 μl (or 40 μl) were added to each assay well in line A, such that the final concentration of the peptide was […] and the volume 200 μl. The medium in the wells was mixed with multichannel pipette 5 times and 100 μl of it were transferred to the next row of wells (line B), to give a peptide concentration of 50 μM. The double dilution of the peptides continued downstream the plate in the same manner. The plates were then incubated for 24 h.
(§6) In day 3, XTT reaction solution was prepared by adding to 100 μl aliquots of activation solution (sodium 3′-[1-(phenyl-aminocarbonyl)-3,4-tetrazolium]-bis(4-methoxy-6-nitro) benzene sulfonic acid hydrate and N-methyl dibenzopyrazine methyl sulfate; mixed in a proportion of 50:1) (protected from light and kept in −20° C.), the substrate. 50 μl of XTT reaction solution were added to each well and the plates were incubated for 2 hours (37° C. and 5% CO2+95% air. In cases the incubation was not enough for the creation of the color, it was extended for up to 24 hours). The optical density was read at wavelength of 450 nm in an ELISA plate reader. Cell viability was determined relative to the control and final results were recorded. The results were confirmed using replications in at least three independent experiments. […]

[2] = Interaction with Matrigel matrix, analysed by RP-HPLC and mass spectroscopy; type: in vitro ADME; conditions: mixed with Matrigel matrix for one hour
[3] = test system: AI CL1 human PC cells xenograft; assay: Inhibition of tumor growth in human prostate cancer xenografts, CL1; type: in vivo, nude male mice
Protocol: (i) Inhibition of tumor growth in human prostate cancer xenografts. Subcutaneouse (s.c.) implantation of human PC cells in mice was done as previously described in Gavish et al. (Gavish et al. 2002). Briefly, 0.1 ml AI CL1 or 22RV1 human PC cells (5×10^6 cells) in Matrigel were inoculated s.c. into the dorsal side of five to six week-old nude male mice weighing 20-25 g (Harlen Co., Israel). Two weeks after cell implantation, when the tumors diameter reached ≧5 mm (denoted as day 1), the diastereomer 13 and its all L-amino acid analog peptide (at 1 mg/kg, 0.1 mM), or vehicle (PBS, pH=7.4) were injected intratumorally (dosing volume of 2.5 ml/kg) three times a week for a total of 9 doses. Tumor size was measured by a caliper and recorded twice a week during a period of 28 days. Mice were weighed and tumor weight (mg) was estimated by using the formula of length×width×depth×0.52 in mm^3, assuming the specific gravity to be 1. At the end of the treatment, the mice were killed, and the tumors were removed, photographed, and weighed. The animal experimentation was conducted according to the rules of the Institutional Animal Care and Use Committee.

[4] = test system: PC3 human prostate cancer cell line; assay: XTT proliferation (cytotoxicity) assay, PC3; type: cell-based; conditions: PC3, pH 7.4, 24 h
Protocol: as §1, §2
A 96-well plate (Falcon) was used for the XTT proliferation assay. Cancer cells were grown for 24 hours (day 1) in RPMI-1640 medium (5×10^3, 7×10^3, 1×10^4 and 7×10^3 cells/100 μl for LLC, CL1, 22RVI, DU 145 and PC3, respectively) supplemented with 10% fetal calf serum and antibiotics, at 37° C., in humidified atmosphere at 5% CO2 and 95% air, resulting in growth medium pH of 7.4. […]
In day 3, XTT reaction solution was prepared by adding to 100 μl aliquots of activation solution (sodium 3′-[1-(phenyl-aminocarbonyl)-3,4-tetrazolium]-bis(4-methoxy-6-nitro) benzene sulfonic acid hydrate and N-methyl dibenzopyrazine methyl sulfate; mixed in a proportion of 50:1) (protected from light and kept in −20° C.), the substrate. […] The optical density was read at wavelength of 450 nm in an ELISA plate reader. Cell viability was determined relative to the control and final results were recorded. […]

[5] = test system: RFP-MDA-MB-231 breast cancer (BC) cells xenograft; assay: Inhibition of tumor growth in breast cancer xenografts; type: in vivo, female SCID/NCr mice
Protocol: RFP-MDA-MB-231 breast cancer (BC) cells were injected (5×10^6 cells in 0.1 ml PBS) into the left mammary fat pad of 8-week-old female SCID/NCr mice (NCI, USA) as previously described ([…] et al., 2004). […] Mice were weighed and tumor volume was measured by a caliper (expressed in weight units (mg) (Papo et al., 2003) twice a week for a period of 45 days. Monitoring of solid breast tumor and its derived metastases was done by in vivo fluorescence. Tumor fluorescence intensity was monitored in real time by using in vivo optical imaging system (IVIS) and was recorded once a week during the period of 38 days.

[6] = XTT proliferation (cytotoxicity) assay, normal fibroblasts; type: cell-based, mouse; conditions: mouse, NIH-3T3 normal mouse fibroblasts, read-out: Lethal Concentration (LC50)
Protocol: as §1, §2, §3, §4, §5, §6

[7] = test system: 22RV1 prostate tumor lung metastases; assay: Inhibition of prostate tumor-derived lung metastases formation
Excerpt: During the experiment, the mice were monitored continuously for clinical signs of toxicity.

[8] = 5 mg/kg systemically, three times a week, 9 doses

## CC(C)C[C@H](NC(=O)[C@H](CC(C)C)NC(=O)[C@@H](CCCCN)NC(=O)[C@H](CC(C)C)NC(=O)[C@H](CC(C)C)NC(=O)[C@H](Cc1c[nH]cn1)NC(=O)[C@@H](CCCCN)NC(=O)[C@@H](CC(C)C)NC(=O)[C@H](CC(C)C)NC(=O)[C@@H](CCCCN)NC(=O)[C@H](Cc1c[nH]cn1)NC(=O)[C@H](CC(C)C)NC(=O)[C@@H](CC(C)C)NC(=O)[C@H](CCCCN)NC(=O)[C@@H](N)CC(C)C)C(N)=O [Peptide 13] (H-LK[dL]LH[dK]L[dL][dK]HLL[dK]LL-NH2)
[1]; DU145, pH 6, 24 h
  Lethal Concentration (LC50): 18.7 µg/mL
[1]; DU145, pH 7.4, 24 h
  Lethal Concentration (LC50): 25 µg/mL
[2]
  activity preserved upon interaction with the Matrigel matrix: ~50%
[3]; CL1 xenograft, 1 mg/kg intratumorally, 9 doses
  tumor weight: significant reduction
[3]; prostate cancer xenografts (CL1, 22RV1)
  body weight of the animals compared with vehicle-treated control group: increase
[4]
  Lethal Concentration (LC50): 25 µg/mL
[5]; [8]
  tumor fluorescence (IVIS): marked lowering
  tumor size (caliper measurements): major reduction
[5]; mouse, in vivo
  body weight of the animals compared with vehicle-treated control group: increase
[5]; throughout the assay period
  condition of animals: good condition
[6]; NIH3T3, pH 6, 24 h
  CC50 at 24 h: 19 µg/mL (≈ 10.4 µM)
[6]; NIH3T3, pH 7.4, 24 h
  CC50 at 24 h: 50 µg/mL (≈ 27.4 µM)
[7]; mouse, in vivo
  body weight compared with vehicle treated control group: significant increase
[7]; systemic administration, vs untreated controls
  lung metastases: entirely abolished
[7]; throughout the assay period
  clinical signs of toxicity (condition of animals): good condition
